Assay results: US12012410B2, “Substituted pyrazolo[1,5-a]pyrazines for spinal muscular atrophy” (REBORNA BIOSCIENCES, INC., priority 2018, dated 2024)

test system: FL-SMN mRNA (SMN transcript containing exons 7 and 8); test: Live-cell assay to measure changes in FL-SMN mRNA levels (qPCR) after exposure to the compounds; assay type: cell-based, human; conditions: fibroblasts derived from patients SMA (GM03813); 24 hours incubation
Method in brief: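 SMA patient fibroblasts (GM03813) in DMEM/10% FBS were treated with compound (0.1% DMSO final) for 24 h. FL-SMN and Δ7 mRNA were measured by RT-qPCR against oligo DNA standard curves and normalised to GAPDH. Values are % of the DMSO control, binned by asterisk from ≥100% to ≥180%.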

| SMILES | Percentage of increase (FL-SMN mRNA standardized against GAPDH, DMSO control set as 100%) |
| --- | --- |
| Cc1cn2nc(-c3nc4ccc(N5CCN(CC6CC6)CC5)cc4c(=O)[nH]3)cc2c(C)n1 [Example 120, 6-[4-(cyclopropyImethyl)piperazin-1-yl]-2-(4,6-dimethylpyrazolo[1,5-a]pyrazin-2-yl)quinazolin-4(3H)-one bistrifluoroacetate] | **** (equal to or higher than 180%) |
| Cc1cn2nc(-c3nc4ccc(N5CCN6CCC[C@H]6C5)cc4c(=O)[nH]3)cc2c(C)n1 [Example 121, (S)-2-(4,6-dimethylpyrazolo[1,5-a]pyrazin-2-yl)-6-(hexahydropyrrolo[1,2-a]pyrazin-2(1H)-yl)quinazolin-4(3H)-one bistrifluoroacetate] | **** (equal to or higher than 180%) |
| Cc1cn2nc(-c3nc4ccc(N5CCNC(C)(C)C5)cc4c(=O)[nH]3)cc2c(C)n1 [Example 122, 6-(3,3-Dimethylpiperazin-1-yl)-2-(4,6-dimethylpyrazolo[1,5-a]pyrazin-2-yl)quinazolin-4(3H)-one bistrifluoroacetate] | **** (equal to or higher than 180%) |
| Cc1cn2nc(-c3nc4ccc(N5CCNC6(CC6)C5)cc4c(=O)[nH]3)cc2c(C)n1 [Example 123, 2-(4,6-dimethylpyrazolo[1,5-a]pyrazin-2-yl)-6-(4,7-diazaspiro[2.5Joctan-7-yl)quinazolin-4(3H)-one bistrifluoroacetate] | **** (equal to or higher than 180%) |
| Cc1cn2nc(-c3nc4ccc(N5CCN6CCCCC6C5)cc4c(=O)[nH]3)cc2c(C)n1 (stereo not shown) [Example 124, 2-(4,6-dimethylpyrazolo[1,5-a]pyrazin-2-yl)-6-(octahydro-2H-pyrido[1,2-a]pyrazin-2-yl)quinazolin-4(3H)-one] | *** (equal to or higher than 150% but lower than 180%) |
| Cc1cn2nc(-c3nc4ccc(N5CCN6CCCCC6C5)cc4c(=O)[nH]3)cc2c(C)n1 (stereo not shown) [Example 125, 2-(4,6-dimethylpyrazolo[1,5-a]pyrazin-2-yl)-6-(octahydro-2H-pyrido[1,2-a]pyrazin-2-yl)quinazolin-4(3H)-one (distomer)] | ** (equal to or higher than 120% but lower than 150%) |
| Cc1cn2nc(-c3nc4ccc(N5CCN6CCC[C@@H]6C5)cc4c(=O)[nH]3)cc2c(C)n1 [Example 126, (R)-2-(4,6-dimethylpyrazolo[1,5-a]pyrazin-2-yl)-6-(hexahydropyrrolo[1,2-a]pyrazin-2(1H)-yl)quinazolin-4(3H)-one] | **** (equal to or higher than 180%) |
| Cc1cn2nc(-c3nc4ccc(N5CCN(C)C[C@@H]5C)cc4c(=O)[nH]3)cc2c(C)n1 [Example 127, (S8)-6-(2,4-simethylpiperazin-1-yl)-2-(4,6-dimethylpyrazolo[1,5-a]pyrazin-2-yl)quinazolin-4(3H)-one] | *** (equal to or higher than 150% but lower than 180%) |
| Cc1cn2nc(-c3nc4ccc(N5CCN(C)C[C@H]5C)cc4c(=O)[nH]3)cc2c(C)n1 [Example 128, (R)-6-(2,4-simethylpiperazin-1-yl)-2-(4,6-dimethylpyrazolo[1,5-a]pyrazin-2-yl)quinazolin-4(3H)-one] | **** (equal to or higher than 180%) |
| CC[C@H]1CN(C)CCN1c1ccc2nc(-c3cc4c(C)nc(C)cn4n3)[nH]c(=O)c2c1 [Example 129, (S)-2-(4,6-dimethylpyrazolo[1,5-a]pyrazin-2-yl)-6-(2-ethyl-4-methylpiperazin-1-yl)quinazolin-4(3H)-one] | *** (equal to or higher than 150% but lower than 180%) |
| CCN1CCN(c2ccc3nc(-c4cc5c(C)nc(C)cn5n4)[nH]c(=O)c3c2)[C@@H](C)C1 [Example 130, (S)-2-(4,6-dimethylpyrazolo[1,5-a]pyrazin-2-yl)-6-(4-ethyl-2-methylpiperazin-1-yl)quinazolin-4(3H)-one] | *** (equal to or higher than 150% but lower than 180%) |
| CCN1CCN(c2ccc3nc(-c4cc5c(C)nc(C)cn5n4)[nH]c(=O)c3c2)[C@H](C)C1 [Example 131, (R)-2-(4,6-dimethylpyrazolo[1,5-a]pyrazin-2-yl)-6-(4-ethyl-2-methylpiperazin-1-yl)quinazolin-4(3H)-one] | *** (equal to or higher than 150% but lower than 180%) |
| CC[C@@H]1CN(C)CCN1c1ccc2nc(-c3cc4c(C)nc(C)cn4n3)[nH]c(=O)c2c1 [Example 132, (R)-2-(4,6-dimethylpyrazolo[1,5-a]pyrazin-2-yl)-6-(2-ethyl-4-methylpiperazin-1-yl)quinazolin-4(3H4)-one] | *** (equal to or higher than 150% but lower than 180%) |
